Test results published in paper doi:10.1101/2025.01.28.635346v1 (bioRxiv, 2025).
Bridge positions count the residues as written; N and C are the ends. Side chains are listed from the residue outwards. Peptide text beside a SMILES is read from it. * marks the point of attachment. Butanoyl(4-(4-I-phenyl)) = O=C(CCCc1ccc(I)cc1)*; PEG2 = NCCOCCOCCC(=O)O

Tests used:
[1] = Hepatocyte stability, cryopreserved mouse hepatocytes; assay type: in vitro ADME
[2] = Plasma protein binding, rapid equilibrium dialysis, human plasma; assay type: in vitro ADME; details: for fraction unbound at 4 h, 2 μM: human, plasma, pH 7.4
[3] = target: T1, HTR1A (Homo sapiens, UniProt P08908); test: Safetyscan47 GPCR cAMP, Antagonist; assay type: cell-based; details: for Emax: read-out: Max Response
T1 sequence (P08908 1-422): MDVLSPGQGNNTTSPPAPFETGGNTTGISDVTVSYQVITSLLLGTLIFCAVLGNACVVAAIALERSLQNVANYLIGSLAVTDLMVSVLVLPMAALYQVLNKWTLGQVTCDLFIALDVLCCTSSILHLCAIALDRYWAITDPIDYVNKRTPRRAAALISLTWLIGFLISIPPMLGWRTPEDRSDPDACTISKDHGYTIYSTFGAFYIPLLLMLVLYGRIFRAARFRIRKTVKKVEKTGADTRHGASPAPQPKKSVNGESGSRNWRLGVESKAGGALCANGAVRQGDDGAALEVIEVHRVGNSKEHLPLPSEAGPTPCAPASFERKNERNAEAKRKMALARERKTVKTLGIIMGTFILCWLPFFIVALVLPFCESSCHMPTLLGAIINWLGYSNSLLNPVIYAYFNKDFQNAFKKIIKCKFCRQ

[4] = target: DRD2S (Homo sapiens, UniProt P14416); test: Safetyscan47 GPCR cAMP, Agonist; assay type: cell-based; details: for Emax: read-out: Max Response
DRD2S, sequence (P14416 1-414 isoform P14416-2): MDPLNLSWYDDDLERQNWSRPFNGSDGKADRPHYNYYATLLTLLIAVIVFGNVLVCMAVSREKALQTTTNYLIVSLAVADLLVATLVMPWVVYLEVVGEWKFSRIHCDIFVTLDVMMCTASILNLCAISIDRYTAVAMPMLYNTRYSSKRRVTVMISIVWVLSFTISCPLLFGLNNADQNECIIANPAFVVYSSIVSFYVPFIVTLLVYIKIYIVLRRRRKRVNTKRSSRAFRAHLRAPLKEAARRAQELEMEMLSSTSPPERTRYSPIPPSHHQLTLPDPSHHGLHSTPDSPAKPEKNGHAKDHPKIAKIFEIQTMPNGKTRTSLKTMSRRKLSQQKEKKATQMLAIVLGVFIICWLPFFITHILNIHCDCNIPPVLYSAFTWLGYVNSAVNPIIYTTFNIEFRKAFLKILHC

[5] = target: CNR1 (Homo sapiens, UniProt P21554); test: Safetyscan47 GPCR cAMP, Agonist; assay type: cell-based; details: for Emax: read-out: Max Response
CNR1, sequence (P21554 whole entry): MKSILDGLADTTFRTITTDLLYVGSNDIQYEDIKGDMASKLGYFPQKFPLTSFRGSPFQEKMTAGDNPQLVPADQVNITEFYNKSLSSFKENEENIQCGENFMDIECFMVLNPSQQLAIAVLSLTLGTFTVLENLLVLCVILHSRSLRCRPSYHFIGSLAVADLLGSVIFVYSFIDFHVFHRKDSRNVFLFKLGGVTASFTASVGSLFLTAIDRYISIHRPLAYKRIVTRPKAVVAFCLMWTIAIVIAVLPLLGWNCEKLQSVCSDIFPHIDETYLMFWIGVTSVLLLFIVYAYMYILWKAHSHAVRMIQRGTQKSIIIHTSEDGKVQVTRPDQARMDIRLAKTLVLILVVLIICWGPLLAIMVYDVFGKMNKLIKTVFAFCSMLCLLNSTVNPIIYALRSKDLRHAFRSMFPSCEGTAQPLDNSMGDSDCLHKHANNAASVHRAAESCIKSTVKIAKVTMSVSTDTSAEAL

[6] = target: T2, CHRM2 (Homo sapiens, UniProt P08172); test: Safetyscan47 GPCR cAMP, Antagonist; assay type: cell-based; details: for Emax: read-out: Max Response
T2 sequence (P08172 1-466): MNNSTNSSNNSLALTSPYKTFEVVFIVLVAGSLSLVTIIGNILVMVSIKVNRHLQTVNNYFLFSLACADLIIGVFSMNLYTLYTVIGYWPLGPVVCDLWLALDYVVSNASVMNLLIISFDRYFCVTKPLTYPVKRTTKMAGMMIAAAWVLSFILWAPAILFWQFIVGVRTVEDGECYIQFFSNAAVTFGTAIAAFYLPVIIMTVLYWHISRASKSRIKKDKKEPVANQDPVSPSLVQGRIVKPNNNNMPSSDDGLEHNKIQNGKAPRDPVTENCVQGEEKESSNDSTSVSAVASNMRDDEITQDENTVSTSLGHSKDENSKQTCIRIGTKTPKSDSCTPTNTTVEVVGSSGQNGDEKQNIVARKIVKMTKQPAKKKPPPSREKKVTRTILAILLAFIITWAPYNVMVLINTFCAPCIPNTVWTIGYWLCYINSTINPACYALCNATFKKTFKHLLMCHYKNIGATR

[7] = Hepatocyte stability, cryopreserved human hepatocytes; assay type: in vitro ADME

| Structure (SMILES) | half-life at 2 μM [1] | remaining at 1 h, 2 μM [1] | remaining at 3 h, 2 μM [1] | fraction unbound at 4 h, 2 μM [2] | IC50 [3] | Emax [3] | EC50 [4] | Emax [4] | EC50 [5] | Emax [5] | IC50 [6] | Emax [6] | half-life at 2 μM [7] | remaining at 1 h, 2 μM [7] | remaining at 3 h, 2 μM [7] | Plasma protein binding, %Recovery ([2]; human plasma, RED, 2 μM, 4 h, 37°C) |
| --- | --- | --- | --- | --- | --- | --- | --- | --- | --- | --- | --- | --- | --- | --- | --- | --- |
| CC[C@H](C)[C@H](NC(=O)[C@H](CC(C)C)NC(=O)[C@H](CC(=O)O)NC(=O)CNC(=O)[C@H](CCCNC(=N)N)NC(=O)[C@@H](NC(=O)[C@H](Cc1ccccc1)NC(=O)[C@H](Cc1ccc(O)cc1)NC(=O)[C@@H]1CCC(=O)NCC(=O)NCC(=O)N[C@@H](CCCNC(=N)N)C(=O)NCC(=O)N[C@@H](Cc2c[nH]cn2)C(=O)N[C@@H](C(C)C)C(=O)N2CCC[C@H]2C(=O)N1)C(C)C)C(=O)N[C@@H](CO)C(=O)N[C@@H](Cc1ccccc1)C(=O)N[C@@H](Cc1ccc(O)cc1)C(=O)N[C@@H](CCCCN)C(=O)O [lassotide 36] (GGRGHVPEYFVRGDLISFYK-OH; lactam N-8) | 3.57 h | 98.7% | 56.9% | 0.126 | > 45 µM | 0% | > 45 µM | 0% | > 45 µM | 1.38% | > 45 µM | 0% | 4.1 h | 87.9% | 57.8% | – |
| CC[C@H](C)[C@H](NC(=O)[C@H](CC(C)C)NC(=O)[C@H](CC(=O)O)NC(=O)CNC(=O)[C@H](CCCNC(=N)N)NC(=O)[C@@H](NC(=O)[C@H](Cc1ccccc1)NC(=O)[C@H](Cc1ccc(O)cc1)NC(=O)[C@@H]1CCC(=O)NCC(=O)NCC(=O)N[C@@H](CCCNC(=N)N)C(=O)NCC(=O)N[C@@H](Cc2c[nH]cn2)C(=O)N[C@@H](C(C)C)C(=O)N2CCC[C@H]2C(=O)N1)C(C)C)C(=O)N[C@@H](CO)C(=O)N[C@@H](Cc1ccccc1)C(=O)N[C@@H](Cc1ccc(O)cc1)C(=O)N[C@@H](CCCCNC(=O)CCOCCOCCNC(=O)CCCc1ccc(I)cc1)C(=O)O [lassotide 47] (GGRGHVPEYFVRGDLISFYK([PEG2-Butanoyl(4-(4-I-phenyl))])-OH; lactam N-8) | 2.69 h | 87.8% | 46.5% | 0.006 | > 45 µM | 0% | > 45 µM | 24.1% | > 45 µM | 29.1% | > 45 µM | 0% | – | 85.3% | 84.8% | 101% |
